One series relates to P. falciparum OAR. Particulars: cited from earlier work.
The next series deals with Escherichia coli OAR. The note with it: E. coli, ref [32], cited from earlier work.
The subject of a further series is M. tuberculosis OAR. Particulars: cited from earlier work.
In series [1] the test system is adult worms. Nature of the series: Inhibition studies on cultured adult worms.
In series [2] the target is T1, rSjOAR (Schistosoma japonicum, UniProt Q5DB51). Nature of the series: Effect of active compounds on rSjOAR enzymatic activity. The class given is biochemical. On the procedure: The Median inhibitory concentration (IC50) was calculated by curve fitting using SPSS18.0 statistical software with a confidence interval of 95%. All assays were carried out in triplicate and repeated three times.

In series [3] the test system is adult worms. Also noted: method as in PMID 19851783. The note with it: after the drug is removed; ref [30]; cited from earlier work.
Series [4] concerns the target T1, rSjOAR. Nature of the series: BIAcore assay of binding to immobilized rSjOAR. On the procedure: The binding capacities of small compounds identified by the virtual screen with rSjOAR were assessed using a BIAcore 3000 instrument (BIAcore AB, Uppsala, Sweden). The recombinant His-tag fusion protein SjOAR was immobilized onto an NTA chip. Compounds were injected at a concentration of 10 µM and a flow rate of 40 µl/min in HBS buffer (0.01 M HEPES, 0.15 M NaCl, 3.0 mM EDTA, 0.005% Tween 20, pH 7.4) containing 1‰ DMSO (Dimethyl sulfoxide). Electrical alterations on the sensor chip were monitored as a resonance signal by using the program supplied by the manufacturer. To further obtain kinetic parameters, a series of compound concentrations (0.5 µM, 1 µM, 2 µM, 5 µM and 10 µM) were measured. Data were analyzed by using the software with which the instrument was equipped.
(In general: Surface plasmon resonance follows binding to a sensor surface in real time, without labels.)

Substrate in series [5]: CC(=O)CC(=O)SCCNC(=O)CCNC(=O)[C@H](O)C(C)(C)COP(=O)(O)OP(=O)(O)OC[C@H]1O[C@@H](n2cnc3c(N)ncnc32)[C@H](O)[C@@H]1OP(=O)(O)O
Nature of the series: rSjOAR kinetic analysis (Michaelis constants of substrates). In kind it is biochemical. The note with it: other: S. japonicum; pH 6.8; 37.0 °C.

Where two headings read alike, the source gives them in different places.

NADPH: the Km in the series with P. falciparum OAR (read-out: Km(app)NADPH, ref [12], [22]) was 47.5 ± 4.5 µM; with Escherichia coli OAR (read-out: Km(app)NADPH), 21 µM; in the series with M. tuberculosis OAR (read-out: Km(app)NADPH), 26 ± 3 µM.

As to `O=C(C1CCCCC1)N1CC(=O)N2CCc3ccccc3C2C1` (stereo not shown) [PZQ, praziquantel], the “morphological changes, optical microscopy” value in the series with adult worms [1] (PZQ 10 µg/ml, 24 h (Figure 5E)) is recorded as “drastic contractions”. Besides, the mortality at 1.6 µg/mL with adult worms [1] (Schistosoma japonicum, 72 h) was 83.3%. Moreover, the “effect on rSjOAR enzymatic activity” value at rSjOAR [2] is “no significant inhibition”. For the same molecule, the “reversibility of effect against schistosomes” value in the series on adult worms [3] is listed as “reversible”. Also, the BIAcore response signal result at rSjOAR [4] (compound 10 µM) is on record as “only a small signal”.

The molecule `O=C(NC1CCN(CCc2c[nH]c3ccccc23)CC1)c1ccccc1` [OAR8] had a mortality in the series with adult worms [1] (primary screening, 50 µg/ml, after 48 h) of 100%. Besides, the “Rmax (maximum binding capacity)” value on rSjOAR [4] (BIAcore) was found to be 57.4. For the same molecule, on rSjOAR [4] (BIAcore, five concentrations 0.5-10 µM), the “KA (association constant)” value turned out to be 82900 M⁻¹. In addition, the dissociation constant (Kd) on rSjOAR [4] (BIAcore, five concentrations 0.5-10 µM, read-out: KD (dissociation constant)) stood at 12.1 µM.

With `CC(=O)CC(=O)SCCNC(=O)CCNC(=O)[C@H](O)C(C)(C)COP(=O)(O)OP(=O)(O)OC[C@H]1O[C@@H](n2cnc3c(N)ncnc32)[C@H](O)[C@@H]1OP(=O)(O)O` [AcAcCoA, Acetoacetyl-CoA], the Km in the series with P. falciparum OAR (read-out: Km(app)AcAcCoA, ref [12], [22]) was 510 ± 50 µM; in the series on Escherichia coli OAR (read-out: Km(app)AcAcCoA), 2500 µM; in the series with M. tuberculosis OAR (read-out: Km(app)AcAcCoA, M. tuberculosis, ref [17], [20]), 170 ± 20 µM.

B1: rSjOAR (Schistosoma japonicum) (protein)
chain: MISLSKKVAIVTGASSGIGRATAILFAKLGACVALVARDKSRLQETRQACIQVSHPDVYEKHKEPFLCIEADLGDSHEVEKAYRLALNHFHQLDILVNNAGFMIQDTVETFNIDEYERLMKLNLTAAITLTNLAVPDLTTTKGSIVNVSSVCGERSFPGVMSYCISKAALDQFTKCTALDLASKGIRVNSVNPAVIVTELHKRAGMSEDDYKKFLLKSKESHALGRTGTVEEVAQAIAFLSSSASSFTTGNLLMVDGGRSIMCPR
B1: the Michaelis-Menten constant (Km) in series [5] stood at 550 ± 30 µM.

Usually Km stands for the concentration of substrate that gives half-maximal velocity. The mortality is the share of the test organisms that died. A lower mortality goes with a weak lethal effect. By Kd is commonly meant the concentration at which binding is half-saturated.

The values are drawn from publication PMC3676400, “3-Oxoacyl-ACP Reductase from Schistosoma japonicum: Integrated In Silico-In Vitro Strategy for Discovering Antischistosomal Lead Compounds” (PLoS ONE, 2013).
